Here are results for 1 compound from article PMC4884960, “Long lasting MDM2/Translocator protein modulator: a new strategy for irreversible apoptosis of human glioblastoma cells” (Oncotarget, 2016).

The test system of data set [1] is U87MG cells. In words: Annexin V and 7-AAD staining (apoptosis). As to conditions: 1 μM, 24 h. In kind it is cell-based, human. The method, then: Dual staining with Annexin V coniugated to fluorescein-isothiocyanate (FITC) and 7-amino-actinomysin (7-AAD) was performed using the commercially available kit (Muse Annexin V and Dead Cell Kit; Merck KGaA, Darmstadt, Germany).
U87MG cells were treated with DMSO (control), EB54 or EB148 (1 μM) for 24 h. Both floating and adherent cells were collected, and incubated for 10 min at room temperature with the fluorescent reagent. After incubation, the percentages of living, apoptotic and dead cells were acquired and analyzed by MuseTM Cell Analyzer in accordance to the manufacture's guidelines.

Data set [2] relates to U87MG cells. As to the kind of experiment: U87MG cell proliferation, MTS assay. Type of data set: cell-based, human. The method, then:
The effects of compound treatment on U87MG cell viability and proliferation were evaluated by Trypan blue exclusion assays and MTS assay, respectively. […] For quantization of cell viability, blue and bright cells were counted, and viability was calculated as the number of living (bright) and dead (blue) cells in each well.
The absorbance of formazan at 490 nm was measured in a colorimetric assay with an automated plate reader (Victor Wallac 2, Perkin Elmer). For wash-out experiments, U87MG cells were treated with EB148 or EB54 (100 nM-10 μM) for 72 h. Following incubation, medium-containing drugs was replaced by fresh medium, and cells were allowed to growth for the indicated days. At the end of treatments, cell proliferation was measured by MTS assay. The results were calculated by subtracting the mean background from the values obtained from each evaluation and were expressed as the percentage of the control (untreated cells). Sigmoid dose-response curve was generated, from which the IC50 values were derived.

Data set [3] is described as follows: Stability test in aqueous solution by HPLC. Type of data set: physicochemical. As to conditions: 1 μM in PBS with 1% DMSO, within 72 h. The method, then:
To test the stability of EB148 in aqueous solution, the compound was dissolved in DMSO and diluted with PBS to the final 1 μM concentration (the amount of DMSO in the final solution was 1%). The solution was maintained in a closed vial and analysed by HPLC at specific times (4, 8, 24, 48 and 72 h) using the following conditions: column Shim-pack VP-ODS 4.6 μm (250 mm × 4.6 mm), isocratic elution with water, flow rate of 1 ml/min, room temperature. The percentage of decomposition was calculated on the base of peak area of the product.

Data set [4] deals with p53 target genes (p53, p21 and MDM2). In words: Relative mRNA quantification of p53 target genes by real-time RT-PCR. Type of data set: cell-based, human. The method, then:
In brief, total RNA was extracted from control cells as well as from cells treated with EB148 or EB54 (1 μM) for different times (8 h, 16 h or 24 h), using RneasyH Mini Kit (Qiagen, Hilden, Germany), according to manufacturer's instructions. cDNA synthesis was performed with 500 ng of RNA using i-Script cDNA synthesis kit (BioRad, Hercules, USA). RT-PCR reactions consisted of 25 μl FluocycleH II SYBRH (Euroclone, Milano, Italy), 1.5 μl of both 10 μM forward and reverse primers (listed in [56]), 3 μl cDNA, and 19 μL of H2O. […] PCR specificity was verified by both the melting curve analysis and gel electrophoresis.
Background: Real-time PCR tracks product formation cycle by cycle.

Data set [5] deals with mitochondria isolated from U87MG cells. In words: Mitochondrial membrane potential (Δψm) dissipation, JC-1 protocol. In kind it is biochemical, human. As to conditions: 1 μM, 20 min. The method, then:
The Δψm dissipation was assessed using the fluorescent dye 5,59,6,69-tetrachloro1,19,3,39-tetraethylbenzimidazolylcarbocyanine iodide (JC-1). Mitochondria were isolated from U87MG cells using the Mitochondria Isolation Kit (Sigma Aldrich, Milan, Italy) following manufacturer's instructions.
Isolated mitochondria were treated for 20 min with EB54 or EB148 (1 μM). In wash-out experiments, mitochondria were then centrifuged at 11.000 × g for 5 min, washed with fresh saline and suspended in JC-1 buffer not containing the drugs. At the end of treatments, 5 μg of control and treated mitochondria were added to the JC-1 dye. The fluorescence (relative fluorescence units, RFU) of the sample was read in a spectrofluorimeter using a time-drive method (one acquisition each 10 sec, for 10 min), where the excitation wavelength was set to 490 nm and emission wavelength at 590 nm. […] Consequently, mitochondrial depolarization is indicated by a decrease in the orange-red fluorescence intensity.

SMILES strings stand for the structures.

With `CCOC(=O)[C@@H](Cc1ccccc1)NC(=O)[C@H](CC(C)C)NC(=O)C(=O)c1c(-c2ccccc2)[nH]c2ccc(N=C=S)cc12` [EB148], in data set [1], the “phosphatidylserine externalization (early and late apoptosis)” value is “significant phoshpatidilserine externalization”. In addition, the IC50 in data set [2] (Homo sapiens, U-87 MG, 72 h, read-out: IC50 of cell proliferation) came to 91.6 ± 8.9 nM. The “cell proliferation 72 h after cell wash-out” value in data set [2] (U87MG, 72 h treatment, then drug-free medium 72 h) is recorded as “inhibition of cell proliferation was maintained”. In addition, the “average peak area (stability in aqueous solution)” value in data set [3] was determined as 98.83 ± 0.47%. Also, the “induction of MDM2 mRNA” value came out at 6.9 fold in data set [4] (1 μM, 8 h); 8.8 fold in data set [4] (1 μM, 16 h); 2.2 fold in data set [4] (1 μM, 24 h). In addition, the “mRNA expression of p53 target genes” value in data set [4] (1 μM, up to 24 h of cell treatment) was “sustained increase”. The “levels of p53 target gene transcripts after wash-out” value in data set [4] (treated for 2 h (text; legend: 16 h), washed out for 16 h in drug-free medium) is on record as “returned to control values”. Moreover, the “JC-1 accumulation (Δψm) compared to control untreated mitochondria” value in data set [5] (isolated mitochondria) is recorded as “significant reduction”. Further, the “Δψm after mitochondria wash-out” value in data set [5] (then centrifuged and washed to remove the ligands) is given as “determined Δψm collapse”.
